Measured values reported in PMC7796031, “Studies of Coumarin Derivatives for Constitutive Androstane Receptor (CAR) Activation” (Molecules, 2020).

Experiments:
[1] = system: FXR; design: method as in PMID 21649640; details: scoparone alone, up to 100 μM; cited from earlier work
[2] = system: bile salt export pump; design: method as in PMID 21649640; details: scoparone 10 μM with chenodeoxycholic acid 10 μM; cited from earlier work
[3] = system: nuclear CAR; test: Protein expression of nuclear CAR (nuclear extraction, western blot); format: cell-based, human; details: Hep3B, treatment for 2 h
Experimental: Figure 3 Image of immunofluorescence staining for CAR translocation in Hep3B cells after 6,7-diprenoxycoumarin (50) treatment (A) and scoparone treatment (C). Hep3B cells were treated with 50 (10 μM) for 2 h. The negative control group was pre-treated with 10 nM okadaic acid (OA). The blue and green fluorescence stands for signals of nuclei and CAR protein, respectively. The protein expression of nuclear CAR after 6,7-diprenoxycoumarin (50) treatment for 2 h (B).
Cells were harvest by centrifugation after trypsin-EDTA treatment. The ice-cold CER I (10 μL/1 × 10^6 cells) was added to the cell pellet following the manufacturer’s instruction. The tube was vigorously vortexed on the highest setting for 15 s to fully suspend the cell pellet, incubated on ice for 10 min, then ice-cold CER II was added to the tube and vortexed for 5 s on the highest setting. After incubating in ice for 1 min, tube was vortexed for 5 s on the highest setting then subjected to centrifuge for 5 min at 16,000× g. The supernatant (cytoplasmic fraction) was […] to a clean pre-chilled tube and the nuclear fraction (pellet) was re-suspended in ice-cold NER. […]
(§1) Protein concentration of each sample was determined using a BCA Protein Assay Kit (Pirece®, Thermo Scientific). […] The emitted fluorescence from the membrane was caught on a LAS-4000 biomolecule imager (FUJI.).

[4] = molecular target: T1, EGFR (Homo sapiens, UniProt P00533); test: EGF-induced phosphorylation of EGFR in Hep3B (western blot); format: cell-based; details: 10 μM, 15 min
T1 construct: 6,7-Diprenoxycoumarin (50) antagonized EGF-induced phosphorylation EGFR in Hep3B; endogenous in cells; host or cells: Hep3B
Experimental: Figure 4 6,7-Diprenoxycoumarin (50) antagonized EGF-induced phosphorylation EGFR in Hep3B. The Hep3B cells (1 × 10^6) were treated without (Ctrl) or with EGF in the absent 50 or present (EGF + 50) of 10 μM 50 for 15 min and phosphorylation status of EGFR was measured.
(§2) 1 × 10^6 cells were seeded in a 10 cm plate, incubated at 37 °C for overnight and treated with various concentrations of compounds for the indicated times. After incubation, the culture medium was removed and washed twice with 2 mL ice-cold 1× PBS. Three hundred μL of protein lysis buffer (150 mM NaCl, 50 mM Tris-HCl (pH 7.4), 1% SDS, 1% Triton X-100, 1 mM PMSF) was added into each plate, scraped with a rubber policeman, collected into a premarked microtube and the incubated in ice for 1 h, sonicated by Ultrasonic Cell Disruptor for three time at 5 s each. The cell lysated was cleared by centrifugation at 12,000× g for 15 min at 4 °C. Supernatants were transferred into a fresh marked microtube and stored at −20 °C for future use.
as §1, with “Scientific). Different percentages of SDS-PAGE gels were prepared according to the molecular size of proteins of interest.” for “Scientific).”

[5] = system: methyl-PP2Ac; test: PP2Ac methylation status in Hep3B (western blot); format: cell-based, human; details: Hep3B, 5, 10, 20 and 40 μM, 24 h
Experimental: Figure 5 The concentration-dependent study of PP2Ac methylation status under 6,7-diprenoxycoumarin (50) treatment. Hep3B cells (1 × 10^6) were treated with 50 (5, 10, 20 and 40 μM) for 24 h. Treated cell lysates were prepared as described in the Methods section and methyl-PP2Ac expression was analyzed by western blot.
as §2
as §1, with “Scientific). Different percentages of SDS-PAGE gels were prepared according to the molecular size of proteins of interest.” for “Scientific).”

[6] = system: MRP2; test: mRNA expression of MRP2 in Hep3B (RT-PCR); format: cell-based, human; details: 10 μM, 2, 4, 6, 8 and 10 h
Experimental: (§3) Figure 6 The time course study of mRNA expression of MRP2 and UGT1A1 after 10 μM 6,7-diprenoxycoumarin treatment. Hep3B cells were treated with 10 μM 50 for 2, 4, 6, 8 and 10 h. The total mRNA was obtained and the expression of downstream genes were analyzed with PCR. The ratio of MRP2 to GAPDH was calculated using Image J and normalization.
(§4) Total RNA was isolated from control and treated cells using a TRIzol reagent (Invitrogen) according to the manufacturer’s instruction. The RNA concentration was measured by a spectrophotometer and equal amounts of total RNA (2 μg) were reverse—transcribed using a RevertAid First Strand cDNA Synthesis Kit (K1622, Fermentas, Hanover, MD, USA). Amplification of cDNA was performed in the PCR reaction buffer (0.2 mM dNTP, 1.5 mM MgCl2, and 0.5 μM of each primer) containing 2.5 units of Taq DNA polymerase. The PCR products were resolved by agarose electrophoresis, visualized by ethidium bromide straining and quantified by Image J®. The PCR cycling procedures and sequences of primers are listed below. PCR conditions: (1) UGT1A1: 94 °C, 30 s; 62 °C, 45 s; 72 °C, 30 s; 27 cycles; (2) MRP2: 94 °C, 30 s; 62 °C, 45 s; 72 °C, 30 s; 27 cycles; (3) CAR: 94 °C, 30 s; 59 °C, 45 s; 72 °C, 30 s; 35 cycles; (4) GADPH: 94 °C, 30 s; 62 °C, 45 s; 72 °C, 30 s; 27 cycles; (4) gtPBREM: 94 °C, 30 s; 63 °C, 30 s; 68 °C, 60 s; 30 cycles.

[7] = system: UGT1A1; test: mRNA expression of UGT1A1 in Hep3B (RT-PCR); format: cell-based, human; details: 10 μM, 2, 4, 6, 8 and 10 h
Experimental: as §3, §4

T1 sequence (P00533 25-1210): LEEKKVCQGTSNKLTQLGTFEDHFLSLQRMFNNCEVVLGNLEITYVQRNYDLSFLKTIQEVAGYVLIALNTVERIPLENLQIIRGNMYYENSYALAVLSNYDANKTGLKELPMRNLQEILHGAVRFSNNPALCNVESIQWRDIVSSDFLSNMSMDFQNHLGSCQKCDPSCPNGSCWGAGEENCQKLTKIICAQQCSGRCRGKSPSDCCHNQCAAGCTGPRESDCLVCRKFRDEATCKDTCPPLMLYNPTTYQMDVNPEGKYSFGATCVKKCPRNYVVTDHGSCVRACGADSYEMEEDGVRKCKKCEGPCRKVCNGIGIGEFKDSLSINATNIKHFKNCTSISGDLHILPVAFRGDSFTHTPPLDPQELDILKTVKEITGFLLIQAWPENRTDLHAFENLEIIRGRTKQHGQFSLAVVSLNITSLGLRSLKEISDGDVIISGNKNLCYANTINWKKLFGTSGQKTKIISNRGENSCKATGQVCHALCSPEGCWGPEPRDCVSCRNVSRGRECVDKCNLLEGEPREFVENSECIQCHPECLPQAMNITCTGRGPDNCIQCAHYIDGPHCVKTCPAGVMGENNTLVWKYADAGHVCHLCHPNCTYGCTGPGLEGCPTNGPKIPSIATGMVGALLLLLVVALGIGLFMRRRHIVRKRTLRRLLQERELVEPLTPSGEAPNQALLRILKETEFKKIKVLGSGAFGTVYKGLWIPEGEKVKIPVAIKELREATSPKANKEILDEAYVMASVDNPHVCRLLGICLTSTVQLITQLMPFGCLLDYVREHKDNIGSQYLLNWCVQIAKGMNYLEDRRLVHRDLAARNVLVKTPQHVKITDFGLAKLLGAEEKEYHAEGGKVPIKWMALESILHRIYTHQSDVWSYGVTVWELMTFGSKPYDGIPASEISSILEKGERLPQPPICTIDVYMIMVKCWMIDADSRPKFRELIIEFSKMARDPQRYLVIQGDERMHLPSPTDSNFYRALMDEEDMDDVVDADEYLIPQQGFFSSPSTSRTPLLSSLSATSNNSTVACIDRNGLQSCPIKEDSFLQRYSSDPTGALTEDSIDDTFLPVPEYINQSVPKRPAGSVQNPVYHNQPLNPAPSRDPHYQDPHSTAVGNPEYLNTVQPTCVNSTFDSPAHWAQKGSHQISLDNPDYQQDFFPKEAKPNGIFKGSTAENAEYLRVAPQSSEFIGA

SMILES	FXR activation [1]	effect on chenodeoxycholic acid-increased expression of bile salt export pump [2]	protein expression of nuclear CAR [3]	EGF-induced phosphorylation of EGFR [4]	methyl-PP2Ac (active form of PP2Ac) [5]	mRNA expression level of MRP2 [6]	mRNA expression level of UGT1A1 [7]
COc1cc2ccc(=O)oc2cc1OC [Compound 39, scoparone]	no effect	potentiated	–	–	–	–	–
CC(C)=CCOc1cc2ccc(=O)oc2cc1OCC=C(C)C [Compound 50, 6,7-diprenoxycoumarin]	–	–	increased	reduce	increased	enhanced	enhanced
